Laboratory results published in patent US6903097B2 (dated 2005).

Compound	melting point
O=C(NCc1ccc(Cl)cc1)c1cnc2ccc(C#CCO)cn2c1=O	179 to 181 °C
CN1c2ccc(C#CCO)cc2C(O)=C(C(=O)NCc2ccc(Cl)cc2)S1(=O)=O	167 to 168 °C
CN1N=C(C(=O)NCc2ccc(Cl)cc2)S(=O)(=O)c2cc(C#CCO)sc21	98 °C (dec.)
O=C(NCc1ccc(Cl)cc1)c1nn(-c2ccccc2)c2sc(CN3CCOCC3)cc2c1=O	182 to 184 °C
O=C(NCc1ccc(Cl)cc1)c1ccc2sc(CN3CCOCC3)cc2c1O	200 °C
O=C(NCc1ccc(Cl)cc1)c1coc2ccc(C#CCO)cc2c1=O	185 to 186 °C
O=C(NCc1ccc(Cl)cc1)c1noc2ccc(C#CCO)cc2c1=O	117 to 120 °C
Cn1nc(C(=O)NCc2ccc(Cl)cc2)c(=O)c2cc(C#CCO)cnc21	201 to 206 °C
